Results published in publication PMC4209162, “Specific aromatic foldamers potently inhibit spontaneous and seeded Aβ42 and Aβ43 fibril assembly” (Biochemical Journal, 2014).
Entries after “also recorded” stand apart in the source; their conditions may differ.

What was measured:
[1] = biological target: T1, Aβ42 (Homo sapiens, UniProt P05067); assay: Spontaneous Aβ42 fibrillization (ThT fluorescence, EM); type: biochemical; conditions: 25°C; for Inhibition of spontaneous Aβ42 fibrillization: Aβ42 5 μM, foldamer 10 μM, 8 h, agitation, ThT fluorescence (EM 4 h); for Inhibition of spontaneous Aβ42 fibrillization, different assembly conditions: Aβ prepared without DMSO, PBE pH 8, Aβ42 5 μM, foldamer 20 μM, 16 h, ThT
T1 sequence (P05067 672-713 limits assumed): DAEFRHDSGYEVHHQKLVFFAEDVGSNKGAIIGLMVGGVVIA

[2] = biological target: Aβ42 oligomers (Homo sapiens, UniProt P05067); assay: A11-reactive Aβ42 conformers (ELISA); type: biochemical; conditions: Aβ42 5 μM, foldamer 20 μM, 25°C; for Effect on A11-reactive Aβ42 conformers after 0.5 h: 0.5 h (end of lag phase); for Effect on A11-reactive Aβ42 conformers after 4 h: 4 h (endpoint of fibrillization)
Chain of Aβ42 oligomers (P05067 672-713 limits assumed): as above

[3] = biological target: T2, Aβ43 (Homo sapiens, UniProt P05067); assay: Seeded Aβ43 fibrillization (ThT fluorescence, EM); type: biochemical; conditions: for Inhibition of seeded Aβ43 fibrillization: Aβ43 5 μM plus seed 0.1 μM monomer, foldamer 5, 10 or 20 μM, 0–2 h, 25°C, ThT, EM
T2 sequence (P05067 672-714 limits assumed): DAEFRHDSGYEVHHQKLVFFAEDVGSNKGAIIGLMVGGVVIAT

[4] = biological target: Aβ43 oligomers (Homo sapiens, UniProt P05067); assay: A11-reactive Aβ43 conformers (ELISA); type: biochemical; conditions: Aβ43 5 μM, foldamer 20 μM, 25°C; for Effect on A11-reactive Aβ43 conformers after 0.5 h: 0.5 h (end of lag phase); for Effect on A11-reactive Aβ43 conformers after 4 h: 4 h (endpoint of fibrillization)
Chain of Aβ43 oligomers (P05067 672-714 limits assumed): as above

[5] = biological target: Aβ42 fibrils (Homo sapiens, UniProt P05067); assay: Disassembly of preformed Aβ42 fibrils; type: biochemical; conditions: foldamer in 4-fold molar excess, 24 h (results not shown)
Chain of Aβ42 fibrils (P05067 672-713 limits assumed): as the sequence (P05067 672-713 limits assumed) above

[6] = biological target: T1, Aβ42; assay: Seeded Aβ42 fibrillization (ThT fluorescence, EM); type: biochemical; conditions: for Inhibition of seeded Aβ42 fibrillization: foldamer 5, 10 or 20 μM, 0–2 h, 25°C; for Inhibition of seeded Aβ42 fibrillization, different assembly conditions: Aβ prepared without DMSO, PBE pH 8, Aβ42 5 μM plus seed 0.1 μM monomer, 16 h
[7] = tested on: SH-SY5Y human neuroblastoma cells; assay: Toxicity of Aβ42 conformers to SH-SY5Y cells (MTT reduction, LDH release); type: cell-based; conditions: 24 h, MTT and LDH; for Effect on toxicity of Aβ42 conformers after 0.5 h of assembly: Aβ42 5 μM assembled with foldamer 20 μM for 0.5 h; for Effect on toxicity of Aβ42 conformers after 4 h of assembly: Aβ42 5 μM assembled with foldamer 20 μM for 4 h
Experimental: (§1) SH-SY5Y human neuroblastoma cells were maintained in Dulbecco's modified Eagle's medium (DMEM) plus 10 mM Hepes, 10% FBS, 4 mM glutamine, penicillin (200 units/ml) and streptomycin (200 μg/ml) in 5% CO2 at 37°C. Cells were differentiated in serum-free DMEM with N2 supplement and 10 μM all-trans-retinoic acid before use. Cells were plated at (10000 cells/well) in 96-well plates and grown overnight. Medium was removed and Aβ conformers or controls were added and cells were incubated for 24 h at 37°C. Toxicity was assessed using an MTT kit (Tox-1; Sigma) or via lactate dehydrogenase (LDH) release using the CytoTox-ONE™ kit (Promega). Toxicity values were normalized to the buffer control without Aβ.

[8] = biological target: T2, Aβ43; assay: Spontaneous Aβ43 fibrillization (ThT fluorescence, EM); type: biochemical; conditions: Aβ43 5 μM; for Inhibition of spontaneous Aβ43 fibrillization: foldamer 5, 10 or 20 μM, 0–8 h, 25°C, ThT, EM 10 μM 4 h
[9] = tested on: SH-SY5Y human neuroblastoma cells; assay: Toxicity of Aβ43 conformers to SH-SY5Y cells (MTT reduction, LDH release); type: cell-based; conditions: 24 h, MTT and LDH; for Effect on toxicity of Aβ43 conformers after 0.5 h of assembly: Aβ43 5 μM assembled with foldamer 20 μM for 0.5 h; for Effect on toxicity of Aβ43 conformers after 4 h of assembly: Aβ43 5 μM assembled with foldamer 20 μM for 4 h
Experimental: as §1

[10] = biological target: T3, FUS (Homo sapiens, UniProt P35637); assay: FUS aggregation (turbidity, absorbance at 395 nm); type: biochemical; conditions: GST-FUS 5 μM, foldamer 20 μM, plus TEV protease, 25°C, 0–90 min
T3 sequence (P35637 1-526): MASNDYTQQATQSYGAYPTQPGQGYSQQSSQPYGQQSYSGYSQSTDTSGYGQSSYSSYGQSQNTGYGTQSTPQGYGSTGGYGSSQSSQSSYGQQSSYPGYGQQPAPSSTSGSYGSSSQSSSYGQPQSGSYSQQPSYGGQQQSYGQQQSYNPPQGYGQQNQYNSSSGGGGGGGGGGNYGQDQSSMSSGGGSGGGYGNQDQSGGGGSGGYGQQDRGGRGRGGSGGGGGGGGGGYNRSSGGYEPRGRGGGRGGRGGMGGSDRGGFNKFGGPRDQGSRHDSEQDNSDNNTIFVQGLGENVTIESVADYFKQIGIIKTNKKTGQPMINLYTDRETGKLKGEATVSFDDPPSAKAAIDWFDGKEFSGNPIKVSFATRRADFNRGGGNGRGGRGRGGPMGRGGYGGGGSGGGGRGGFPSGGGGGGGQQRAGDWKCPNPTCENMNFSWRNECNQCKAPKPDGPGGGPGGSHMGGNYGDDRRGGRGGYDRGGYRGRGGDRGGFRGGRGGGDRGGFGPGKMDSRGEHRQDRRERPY
Experimental: GST–TEV–FUS was purified as described. Aggregation was initiated by addition of tobbaco etch virus (TEV) protease to GST–TEV–FUS (5 μM) plus or minus foldamer (20 μM) in assembly buffer (50 mM Tris/HCl pH 8, 0.2 M trehalose and 20 mM glutathione). Aggregation was for 0–90 min at 25°C without agitation in a 96-well plate and was assessed by turbidity (absorbance at 395 nm) using a Tecan Infinite M1000 plate reader. No aggregation occurred unless TEV protease was added to separate GST from FUS [58].

[11] = Aβ42 5 μM plus seed 0.1 μM monomer

(Lys-Sal)4-COMe
Inhibition of spontaneous Aβ42 fibrillization [1]: ineffective

(Lys-Sal)4-CONH2
Inhibition of spontaneous Aβ42 fibrillization [1]: ineffective

(Lys-Sal)4-COOH
Inhibition of spontaneous Aβ42 fibrillization [1]: ineffective

(Lys-Sal)4-COβAla
Inhibition of spontaneous Aβ42 fibrillization [1]: ineffective

Ac-(Lys-Sal)2-CONH2
Inhibition of spontaneous Aβ42 fibrillization [1]: failed to inhibit assembly

Ac-(Lys-Sal)3-CONH2
Inhibition of spontaneous Aβ42 fibrillization [1]: failed to inhibit assembly

Ac-Sal-(Lys-Sal)3-CONH2
Effect on A11-reactive Aβ42 conformers after 0.5 h [2]: had no effect
Effect on A11-reactive Aβ42 conformers after 4 h [2]: remained at higher levels
Inhibition of seeded Aβ43 fibrillization [3]: did not inhibit seeded Aβ43 fibrillization
Inhibition of spontaneous Aβ42 fibrillization [1]: strong inhibitors; also recorded: potent inhibitors
Inhibition of spontaneous Aβ42 fibrillization, different assembly conditions [1]: inhibited
Effect on A11-reactive Aβ43 conformers after 0.5 h [4]: had no effect
Effect on A11-reactive Aβ43 conformers after 4 h [4]: declined more extensively
Disassembly of Aβ42 fibrils [5]: did not disassemble Aβ42 fibrils
Inhibition of seeded Aβ42 fibrillization [6, 11]: inhibited seeded Aβ42 fibrillization at all concentrations tested
Inhibition of seeded Aβ42 fibrillization, different assembly conditions ([6]; foldamer 20 μM): inhibited
Effect on toxicity of Aβ42 conformers after 0.5 h of assembly [7]: had no effect
Effect on toxicity of Aβ42 conformers after 4 h of assembly [7]: enhanced
Inhibition of spontaneous Aβ43 fibrillization [8]: did not block spontaneous Aβ43 fibrillization
Effect on toxicity of Aβ43 conformers after 0.5 h of assembly [9]: neither Sal-(Lys-Sal)3-CONH2 nor Ac-Sal-(Lys-Sal)3-CONH2 affected the toxicity
Effect on toxicity of Aβ43 conformers after 4 h of assembly [9]: neither Sal-(Lys-Sal)3-CONH2 nor Ac-Sal-(Lys-Sal)3-CONH2 affected the toxicity
Inhibition of FUS aggregation [10]: did not inhibit FUS aggregation

Sal-(Lys-Sal)2-CONH2
Inhibition of spontaneous Aβ42 fibrillization [1]: failed to inhibit assembly

Sal-(Lys-Sal)3-CONH2
Effect on A11-reactive Aβ42 conformers after 0.5 h [2]: had no effect
Effect on A11-reactive Aβ42 conformers after 4 h [2]: remained at higher levels
Inhibition of seeded Aβ43 fibrillization [3]: did not inhibit seeded Aβ43 fibrillization
ThT fluorescence of Aβ43 fibrillar forms in presence of foldamer (seeded) ([3]; Aβ43 5 μM plus seed, compared with Aβ43 alone): higher ThT fluorescence signal
Inhibition of spontaneous Aβ42 fibrillization [1]: strong inhibitors; also recorded: potent inhibitors
Inhibition of spontaneous Aβ42 fibrillization, different assembly conditions [1]: inhibited
Effect on A11-reactive Aβ43 conformers after 0.5 h [4]: had no effect
Effect on A11-reactive Aβ43 conformers after 4 h [4]: declined more extensively
Disassembly of Aβ42 fibrils [5]: did not disassemble Aβ42 fibrils
Extent of seeded Aβ42 fibrillization at 4-fold molar excess of foldamer ([6]; Aβ42 5 μM plus seed 0.1 μM monomer, foldamer 20 μM): very limited
Inhibition of seeded Aβ42 fibrillization [6, 11]: only inhibited seeded Aβ42 fibrillization when present at a 4-fold molar excess over Aβ42
Inhibition of seeded Aβ42 fibrillization, different assembly conditions ([6]; foldamer 20 μM): inhibited
Effect on toxicity of Aβ42 conformers after 0.5 h of assembly [7]: had no effect
Effect on toxicity of Aβ42 conformers after 4 h of assembly [7]: enhanced
ThT fluorescence of Aβ43 fibrils formed in presence of foldamer (spontaneous) ([8]; compared with Aβ43 alone): higher ThT fluorescence
Inhibition of spontaneous Aβ43 fibrillization [8]: did not block spontaneous Aβ43 fibrillization
Effect on toxicity of Aβ43 conformers after 0.5 h of assembly [9]: neither Sal-(Lys-Sal)3-CONH2 nor Ac-Sal-(Lys-Sal)3-CONH2 affected the toxicity
Effect on toxicity of Aβ43 conformers after 4 h of assembly [9]: neither Sal-(Lys-Sal)3-CONH2 nor Ac-Sal-(Lys-Sal)3-CONH2 affected the toxicity
Inhibition of FUS aggregation [10]: delayed FUS aggregation
